Data on 48 molecules can be found in patent publication US8431704B2, “Quinoline or isoquinoline substituted P2X7 antagonists” (Janssen Pharmaceutica NV, priority 2008, dated 2013).

This assay addresses T1, P2X7 (Homo sapiens, UniProt Q99572).
T1 construct: endogenous in cells; host or cells: THP-1 human monocytic cell line
T1 sequence (Q99572 1-595): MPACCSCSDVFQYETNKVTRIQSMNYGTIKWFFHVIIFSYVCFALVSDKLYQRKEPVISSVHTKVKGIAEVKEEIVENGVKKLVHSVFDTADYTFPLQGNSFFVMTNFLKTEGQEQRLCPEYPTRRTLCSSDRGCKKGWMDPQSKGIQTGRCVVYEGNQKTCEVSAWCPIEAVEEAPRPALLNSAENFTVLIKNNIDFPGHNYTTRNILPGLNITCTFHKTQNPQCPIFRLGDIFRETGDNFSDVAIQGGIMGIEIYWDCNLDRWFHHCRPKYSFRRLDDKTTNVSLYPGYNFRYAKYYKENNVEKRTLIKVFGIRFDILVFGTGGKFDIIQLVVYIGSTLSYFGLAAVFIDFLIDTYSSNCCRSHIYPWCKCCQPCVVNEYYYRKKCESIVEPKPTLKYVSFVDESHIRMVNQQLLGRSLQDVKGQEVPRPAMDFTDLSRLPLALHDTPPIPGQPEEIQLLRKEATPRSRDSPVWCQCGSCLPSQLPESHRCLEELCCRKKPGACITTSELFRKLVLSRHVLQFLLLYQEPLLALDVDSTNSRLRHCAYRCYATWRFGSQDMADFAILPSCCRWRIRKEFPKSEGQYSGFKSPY
The assay can be described thus: THP-1 YoPro uptake assay (BzATP-stimulated Yo-Pro-1 uptake). Type of assay: cell-based. Conditions: Table F-10, THP-1 cells, read-out: mean pIC50 values for P2X7 antagonism (converted). As for the experimental part:
The human monocytic cell line THP-1 was grown as a suspension culture in RPMI medium supplemented with 10% fetal bovine serum, penicillin/streptomycin (50 units/mL), 2 mM L-glutamine, and 20 μM 2-mercaptoethanol. Cells were maintained at a density below 0.5 million per mL. On the day of the assay, cells were washed twice with assay buffer, and then resuspended at 2 million per mL in assay buffer containing 2 μM Yo-Pro-1 (Invitrogen). The assay buffer contained (in mM): 280 sucrose, 5 KCl, 10 glucose, 10 HEPES, 5 N-methyl-D-glucamine. The cells were added at 200 k/well into poly-D-lysine-coated black-walled 96-well plates (Biocoat, Becton-Dickinson). Test compounds were dissolved in DMSO, and then added at the test concentration to each well of the 96-well plate. Concentration dependence of block was determined by exposing each well of cells in duplicate rows of a 96-well plate to a serial dilution of test compound. The concentration series usually started at 10 μM with a three-fold decrement in concentration. The final DMSO concentration seen by the cells was less than 0.5%. Cells were incubated with test compounds for 30 minutes at 37° C. A background reading was taken using a Gemini SpectraMax with 490 nm excitation and 530 nm emission. […] After incubation for 60 minutes at 37° C., an endpoint read was taken in the SpectraMax plate reader. The amount of block of the response was determined by comparing the fluorescence intensity in each well to the average of control wells on each plate. The control wells contained either a known antagonist of P2X7 (positive controls) or a concentration of DMSO equal to that in the test wells. Data were analyzed using a nonlinear regression program (Origin, OriginLab, MA). Results are reported as the −log of the IC50 (pIC50).

The structures appear in SMILES notation.

For `O=C(NCC(c1cnc(C(F)(F)F)nc1)N1CCC(F)(F)CC1)c1c(Cl)ccc2nc(N3CC(O)C3)ccc12` (stereo not drawn) [Compound 465], the IC50 was 7.76 nM.

Take `CNCCN(C)c1ccc2c(C(=O)NCC(c3cnc(C(F)(F)F)nc3)N3CCC(F)(F)CC3)c(Cl)ccc2n1` (stereo not drawn) [Compound 517]: the IC50 was 8.51 nM.

As to `O=C(NCC(c1cnc(C(F)(F)F)nc1)N1CCOCC1)c1c(Cl)ccc2nc(NCc3cccnc3)ccc12` (stereo not drawn) [Compound 435], the IC50 was 77.6 nM.

For the molecule `CCN(CC)c1ccc2c(C(=O)NCC(c3cnc(C(F)(F)F)nc3)N3CCOCC3)c(Cl)ccc2n1` (stereo not drawn) [Compound 462], the IC50 is 9.12 nM.

For the molecule `CC(C)CN1CCN(c2ccc3c(C(=O)NCC(c4cnc(C(F)(F)F)nc4)N4CCOCC4)c(Cl)ccc3n2)CC1` (stereo not drawn) [Compound 408], the IC50 is 6.76 nM.

As to `O=C(NCC(c1cnc(C(F)(F)F)nc1)N1CCC(F)(F)CC1)c1c(Cl)ccc2nc(N3CC(CO)C3)ccc12` (stereo not drawn) [Compound 510], the IC50 was 3.47 nM.

On to `O=C(NCC(c1cnc(C(F)(F)F)nc1)N1CCOCC1)c1c(Cl)ccc2nc(N3CC4CNC4C3)ccc12` (stereo not drawn) [Compound 565], for which the IC50 is 2.57 nM.

With `O=C(NCC(c1cnc(C(F)(F)F)nc1)N1CCOCC1)c1c(Cl)ccc2nc(N3CCC4(CCCN4)C3)ccc12` (stereo not drawn) [Compound 519], the IC50 was 7.08 nM.

For the molecule `CNc1ccc2c(C(=O)NCC(c3cnc(C(F)(F)F)nc3)N3CCOCC3)c(Cl)ccc2n1` (stereo not drawn) [Compound 500], the IC50 was 10.2 nM.

`O=C(NCC(c1cnc(C(F)(F)F)nc1)N1CCOCC1)c1c(Cl)ccc2nc(N3C[C@@H]4CN[C@H]3C4)ccc12` (stereo partly drawn) [Compound 460]: the IC50 is 8.91 nM.

`CC(C)Nc1ccc2c(C(=O)NCC(c3cnc(C(F)(F)F)nc3)N3CCC(F)(F)CC3)c(Cl)ccc2n1` (stereo not drawn) [Compound 491]: the IC50 was 3.8 nM.

Take `O=C(NCC(c1cnc(C(F)(F)F)nc1)N1CCC(F)(F)CC1)c1c(Cl)ccc2nc(N3CCC(n4cn[nH]c4=O)CC3)ccc12` (stereo not drawn) [Compound 518]: the IC50 was 10.2 nM.

`CN[C@@H]1CCN(c2ccc3c(C(=O)NCC(c4cnc(C(F)(F)F)nc4)N4CCOCC4)c(Cl)ccc3n2)C1` (stereo partly drawn) [Compound 562]: the IC50 was 4.9 nM.

In the case of `CCC(C)Nc1ccc2c(C(=O)NCC(c3cnc(C(F)(F)F)nc3)N3CCC(F)(F)CC3)c(Cl)ccc2n1` (stereo not drawn) [Compound 467], the IC50 was 6.92 nM.

Regarding `O=C(NCC(c1cnc(C(F)(F)F)nc1)N1CCC(F)(F)CC1)c1c(Cl)ccc2nc(N3CCCOCC3)ccc12` (stereo not drawn) [Compound 466], the IC50 was 8.13 nM.

In the case of `CS(=O)(=O)NCCNc1ccc2c(C(=O)NCC(c3cnc(C(F)(F)F)nc3)N3CCOCC3)c(Cl)ccc2n1` (stereo not drawn) [Compound 553], the IC50 was 17.4 nM.

As to `O=C(NCC(c1cnc(C(F)(F)F)nc1)N1CCOCC1)c1c(Cl)ccc2nc(N3CC[C@@H](O)C3)ccc12` (stereo partly drawn) [Compound 499], the IC50 was 20.9 nM.

Regarding `O=C(NCC(c1cnc(C(F)(F)F)nc1)N1CCOCC1)c1c(Cl)ccc2nc(NCCCO)ccc12` (stereo not drawn) [Compound 430], the IC50 was 22.4 nM.

As for `O=C(NCC(c1cnc(C(F)(F)F)nc1)N1CCC(F)(F)CC1)c1c(Cl)ccc2nc(NC3CCOCC3)ccc12` (stereo not drawn) [Compound 468], the IC50 is 22.4 nM.

Turning to `O=C(NCC(c1cnc(C(F)(F)F)nc1)N1CCC(F)(F)CC1)c1c(Cl)ccc2nc(NCCO)ccc12` (stereo not drawn) [Compound 495], the IC50 is 7.41 nM.

Take `O=C(NCC(c1cnc(C(F)(F)F)nc1)N1CCCCC1)c1c(Cl)ccc2nc(N3CCNCC3)ccc12` (stereo not drawn) [Compound 549]: the IC50 was 3.39 nM.

On to `O=C(NCC(c1cnc(C(F)(F)F)nc1)N1CCOCC1)c1c(Cl)ccc2nc(N3CCC(n4cn[nH]c4=O)CC3)ccc12` (stereo not drawn) [Compound 446], for which the IC50 is 34.7 nM.

As to `CC1(O)CCN(c2ccc3c(C(=O)NCC(c4cnc(C(F)(F)F)nc4)N4CCOCC4)c(Cl)ccc3n2)CC1` (stereo not drawn) [Compound 516], the IC50 is 9.77 nM.

For the molecule `O=C(NCC(c1cnc(C(F)(F)F)nc1)N1CCOCC1)c1c(Cl)ccc2nc(NCCNCCO)ccc12` (stereo not drawn) [Compound 514], the IC50 was 7.59 nM.

As for `O=C(NCC(c1cnc(C(F)(F)F)nc1)N1CCOCC1)c1c(Cl)ccc2nc(N3CCC3)ccc12` (stereo not drawn) [Compound 416], the IC50 is 1.74 nM.

Turning to `CC(C)Nc1ccc2c(C(=O)NCC(c3cnc(C(F)(F)F)nc3)N3CCOCC3)c(Cl)ccc2n1` (stereo not drawn) [Compound 496], the IC50 is 6.61 nM.

Regarding `O=C(NCC(c1cnc(C(F)(F)F)nc1)N1CCC(F)(F)CC1)c1c(Cl)ccc2nc(NCCN3CCOCC3)ccc12` (stereo not drawn) [Compound 513], the IC50 is 5.13 nM.

As for `O=C(NCC(c1cnc(C(F)(F)F)nc1)N1CCOCC1)c1c(Cl)ccc2nc(N3CCC(c4n[nH]c(=O)[nH]4)CC3)ccc12` (stereo not drawn) [Compound 445], the IC50 was 23.4 nM.

With `CSc1ncc(C(CNC(=O)c2c(Cl)ccc3ncccc23)N2CCC(F)(F)CC2)cn1` (stereo not drawn) [Compound 582, 6-chloro-quinoline-5-carboxylic acid [2-(4,4-difluoro-piperidin-1-yl)-2-(2-methylsulfanyl-pyrimidin-5-yl)-ethyl]-amide], the IC50 is 10.7 nM.

For the molecule `CC(C)N1CCN(c2ccc3c(C(=O)NCC(c4cnc(C(F)(F)F)nc4)N4CCOCC4)c(Cl)ccc3n2)CC1` (stereo not drawn) [Compound 410], the IC50 is 5.01 nM.

Take `O=C(NCC(c1cnc(C(F)(F)F)nc1)N1CCC(F)(F)CC1)c1c(Cl)ccc2nc(NC3CC3)ccc12` (stereo not drawn) [Compound 493]: the IC50 was 8.71 nM.

For the molecule `O=C(NCC(c1cnc(C(F)(F)F)nc1)N1CCOCC1)c1c(Cl)ccc2nc(N3CCN(CCO)CC3)ccc12` (stereo not drawn) [Compound 455], the IC50 is 25.7 nM.

Regarding `O=C(NCC(c1cnc(C(F)(F)F)nc1)N1CCC(F)(F)CC1)c1c(Cl)ccc2nc(N3CC(O)(C(F)(F)F)C3)ccc12` (stereo not drawn) [Compound 509], the IC50 is 17.8 nM.

For `O=C(NCC(c1cnc(C(F)(F)F)nc1)N1CCOCC1)c1c(Cl)ccc2nc(N3CCC4CNCC43)ccc12` (stereo not drawn) [Compound 559], the IC50 was 3.63 nM.

`Cc1ccccc1CNc1ccc2c(C(=O)NCC(c3cnc(C(F)(F)F)nc3)N3CCOCC3)c(Cl)ccc2n1` (stereo not drawn) [Compound 437]: the IC50 is 155 nM.

In the case of `O=C(NCC(c1cnc(C(F)(F)F)nc1)N1CCOCC1)c1c(Cl)ccc2nc(N3CCC4(CCCCN4)C3)ccc12` (stereo not drawn) [Compound 520], the IC50 was 9.55 nM.

For the molecule `NC1CN(c2ccc3c(C(=O)NCC(c4cnc(C(F)(F)F)nc4)N4CCOCC4)c(Cl)ccc3n2)C1` (stereo not drawn) [Compound 512], the IC50 was 5.37 nM.

`O=C(NCC(c1cnc(C(F)(F)F)nc1)N1CCC(F)(F)CC1)c1c(Cl)ccc2nc(N3C[C@@H]4C[C@H]3CO4)ccc12` (stereo partly drawn) [Compound 530]: the IC50 is 2.63 nM.

As for `O=C(NCC(c1cnc(C(F)(F)F)nc1)N1CCOCC1)c1c(Cl)ccc2nc(N3C[C@@H]4CCCN[C@@H]4C3)ccc12` (stereo partly drawn) [Compound 564], the IC50 is 7.41 nM.

As to `CC1CN(c2ccc3c(C(=O)NCC(c4cnc(C(F)(F)F)nc4)N4CCOCC4)c(Cl)ccc3n2)CCO1` (stereo not drawn) [Compound 453], the IC50 was 20.9 nM.

For `O=C(NCC(c1cnc(C(F)(F)F)nc1)N1CCOCC1)c1c(Cl)ccc2nc(N3CCCOCC3)ccc12` (stereo not drawn) [Compound 459], the IC50 is 2.63 nM.

Take `NCC1CCN(c2ccc3c(C(=O)NCC(c4cnc(C(F)(F)F)nc4)N4CCC(F)(F)CC4)c(Cl)ccc3n2)CC1` (stereo not drawn) [Compound 528]: the IC50 is 4.57 nM.

In the case of `CC(=O)N1C[C@@H]2C[C@H]1N(c1ccc3c(C(=O)NCC(c4cnc(C(F)(F)F)nc4)N4CCOCC4)c(Cl)ccc3n1)C2` (stereo partly drawn) [Compound 461], the IC50 is 107 nM.

On to `CCC(C)Nc1ccc2c(C(=O)NCC(c3cnc(C(F)(F)F)nc3)N3CCOCC3)c(Cl)ccc2n1` (stereo not drawn) [Compound 457], for which the IC50 is 0.955 nM.

For `CC(CO)Nc1ccc2c(C(=O)NCC(c3cnc(C(F)(F)F)nc3)N3CCOCC3)c(Cl)ccc2n1` (stereo not drawn) [Compound 456], the IC50 is 7.24 nM.

`CNC1CN(c2ccc3c(C(=O)NCC(c4cnc(C(F)(F)F)nc4)N4CCOCC4)c(Cl)ccc3n2)C1` (stereo not drawn) [Compound 522]: the IC50 is 24.5 nM.

Turning to `O=C(NCC(c1cnc(C(F)(F)F)nc1)N1CCOCC1)c1c(Cl)ccc2nc(N3CCCCC3)ccc12` (stereo not drawn) [Compound 414], the IC50 was 4.17 nM.

On to `CNCCCN(C)c1ccc2c(C(=O)NCC(c3cnc(C(F)(F)F)nc3)N3CCOCC3)c(Cl)ccc2n1` (stereo not drawn) [Compound 433], for which the IC50 is 11.5 nM.
